Target: T1, Cys12 of the KRAS 4B G12C protein (Homo sapiens, UniProt P01116, G12C)
T1 construct: This protein contained 188 amino acids in total, including an N-terminal 6-Histidine tag; made in house; host or cells: E. coli BL21
Assay: In vitro covalent adduct formation (CAF) assay, LC-MS intact mass
Format: binding
Settings: 10 uM compound, 60 min
Method in brief: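 Percent covalent modification from intact-mass LC-MS, by relative free versus adducted protein (adducts within 1 Da of expected mass). Reaction: 10 μM compound with 5 μM E. coli-expressed, GDP-exchanged KRAS 4B G12C in TBS pH 7.4, 4% DMSO, 1 h at 22° C.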

Point of comparison: `C=CC(=O)N1[C@H](C)CN(c2nc(=O)n3c4c(c(-c5cc(Cl)c(F)cc5F)c(C(F)(F)F)cc24)SC[C@@H]3CN2CCN(C3CC3)CC2)C[C@@H]1C` (atropisomer, axis not shown) [Example 1348, (3S,10R)-7-((3S,5R)-4-acryloyl-3,5-dimethylpiperazin-1-yl)-10-(5-chloro-2,4-difluorophenyl)-3-((4-cyclopropylpiperazin-1-yl)methyl)-9-(trifluoromethyl)-2,3-dihydro-5H-[1,4]thiazino[2,3,4-ij]quinazolin-5-one], “% CAF 10 uM @ 60 min” value 94.4%. Against it:
- C=CC(=O)N1C[C@H](C)N(c2nc(=O)n3c4c(c(-c5cc(Cl)c(F)cc5F)c(C(F)(F)F)cc24)SC[C@@H]3CN2C[C@@H]3C[C@H]2CO3)C[C@H]1C (atropisomer, axis not shown) [Example 1335, (3S,10S)-3-(((1S,4S)-2-oxa-5-azabicyclo[2.2.1]heptan-5-yl)methyl)-7-((2S,5R)-4-acryloyl-2,5-dimethylpiperazin-1-yl)-10-(5-chloro-2,4-difluorophenyl)-9-(trifluoromethyl)-2,3-dihydro-5H-[1,4]thiazino[2,3,4-ij]quinazolin-5-one] — lower, 29.7%
- C=CC(=O)N1CCN(c2nc(=O)n3c4c(c(-c5cc(Cl)c(F)cc5F)c(C(F)(F)F)cc24)SC[C@@H]3CN2CCN(CC)CC2)CC1 (atropisomer, axis not shown) [Example 1337, (3S,10S)-7-(4-acryloylpiperazin-1-yl)-10-(5-chloro-2,4-difluorophenyl)-3-((4-ethylpiperazin-1-yl)methyl)-9-(trifluoromethyl)-2,3-dihydro-5H-[1,4]thiazino[2,3,4-ij]quinazolin-5-one] — higher, 96.7%
- C=CC(=O)N1CCN(c2nc(=O)n3c4c(c(-c5cc(Cl)c(F)cc5F)c(C(F)(F)F)cc24)SC[C@@H]3CN2CCN(CC)CC2)CC1 (atropisomer, axis not shown) [Example 1338, (3S,10R)-7-(4-acryloylpiperazin-1-yl)-10-(5-chloro-2,4-difluorophenyl)-3-((4-ethylpiperazin-1-yl)methyl)-9-(trifluoromethyl)-2,3-dihydro-5H-[1,4]thiazino[2,3,4-ij]quinazolin-5-one] — higher, 99%
- C=CC(=O)N1[C@H](C)CN(c2nc(=O)n3c4c(c(-c5cc(Cl)c(F)cc5F)c(C(F)(F)F)cc24)SC[C@@H]3CN2CCN(CC)CC2)C[C@@H]1C (atropisomer, axis not shown) [Example 1339] — lower, 68.7%
- C=CC(=O)N1[C@H](C)CN(c2nc(=O)n3c4c(c(-c5cc(Cl)c(F)cc5F)c(C(F)(F)F)cc24)SC[C@@H]3CN2CCN(CC)CC2)C[C@@H]1C (atropisomer, axis not shown) [Example 1340, (3S,10S)-7-((3S,5R)-4-acryloyl-3,5-dimethylpiperazin-1-yl)-10-(5-chloro-2,4-difluorophenyl)-3-((4-ethylpiperazin-1-yl)methyl)-9-(trifluoromethyl)-2,3-dihydro-5H-[1,4]thiazino[2,3,4-ij]quinazolin-5-one] — lower, 89.4%
- C=CC(=O)N1CCN(c2nc(=O)n3c4c(c(-c5cc(Cl)c(F)cc5F)c(C(F)(F)F)cc24)SC[C@@H]3CN2C[C@@H]3C[C@H]2CO3)CC1 (atropisomer, axis not shown) [Example 1341, (3S,10R)-3-(((1S,4S)-2-oxa-5-azabicyclo[2.2.1]heptan-5-yl)methyl)-7-(4-acryloylpiperazin-1-yl)-10-(5-chloro-2,4-difluorophenyl)-9-(trifluoromethyl)-2,3-dihydro-5H-[1,4]thiazino[2,3,4-ij]quinazolin-5-one] — higher, 97.4%
- C=CC(=O)N1CCN(c2nc(=O)n3c4c(c(-c5cc(Cl)c(F)cc5F)c(C(F)(F)F)cc24)SC[C@@H]3CN2C[C@@H]3C[C@H]2CO3)CC1 (atropisomer, axis not shown) [Example 1342, (3S,10S)-3-(((1S,4S)-2-oxa-5-azabicyclo[2.2.1]heptan-5-yl)methyl)-7-(4-acryloylpiperazin-1-yl)-10-(5-chloro-2,4-difluorophenyl)-9-(trifluoromethyl)-2,3-dihydro-5H-[1,4]thiazino[2,3,4-ij]quinazolin-5-one] — lower, 44.1%
- C=CC(=O)N1[C@H](C)CN(c2nc(=O)n3c4c(c(-c5ccc(F)cc5F)c(C(F)(F)F)cc24)SC[C@@H]3CN2CCN(C3CC3)CC2)C[C@@H]1C (atropisomer, axis not shown) [Example 1346, (3S,10R)-7-((3S,5R)-4-acryloyl-3,5-dimethylpiperazin-1-yl)-3-((4-cyclopropylpiperazin-1-yl)methyl)-10-(2,4-difluorophenyl)-9-(trifluoromethyl)-2,3-dihydro-5H-[1,4]thiazino[2,3,4-ij]quinazolin-5-one] — higher, 96.9%
- C=CC(=O)N1[C@H](C)CN(c2nc(=O)n3c4c(c(-c5ccc(F)cc5F)c(C(F)(F)F)cc24)SC[C@@H]3CN2CCN(C3CC3)CC2)C[C@@H]1C (atropisomer, axis not shown) [Example 1347, (3S,10S)-7-((3S,5R)-4-acryloyl-3,5-dimethylpiperazin-1-yl)-3-((4-cyclopropylpiperazin-1-yl)methyl)-10-(2,4-difluorophenyl)-9-(trifluoromethyl)-2,3-dihydro-5H-[1,4]thiazino[2,3,4-ij]quinazolin-5-one] — lower, 89.7%
- C=CC(=O)N1[C@H](C)CN(c2nc(=O)n3c4c(c(-c5cc(Cl)c(F)cc5F)c(C(F)(F)F)cc24)SC[C@@H]3CN2CCN(C3CC3)CC2)C[C@@H]1C (atropisomer, axis not shown) [Example 1349, (3S,10S)-7-((3S,5R)-4-acryloyl-3,5-dimethylpiperazin-1-yl)-10-(5-chloro-2,4-difluorophenyl)-3-((4-cyclopropylpiperazin-1-yl)methyl)-9-(trifluoromethyl)-2,3-dihydro-5H-[1,4]thiazino[2,3,4-ij]quinazolin-5-one] — lower, 86.9%
- C=CC(=O)N1CCN(c2nc(=O)n3c4c(c(-c5cc(Cl)c(F)cc5F)c(C(F)(F)F)cc24)SC[C@@H]3CN2CCN(C3CC3)CC2)CC1 (atropisomer, axis not shown) [Example 1355, (3S,10R)-7-(4-acryloylpiperazin-1-yl)-10-(5-chloro-2,4-difluorophenyl)-3-((4-cyclopropylpiperazin-1-yl)methyl)-9-(trifluoromethyl)-2,3-dihydro-5H-[1,4]thiazino[2,3,4-ij]quinazolin-5-one] — higher, 99.2%
- C=CC(=O)N1CCN(c2nc(=O)n3c4c(c(-c5cc(Cl)c(F)cc5F)c(C(F)(F)F)cc24)SC[C@@H]3CN2CCN(C3CC3)CC2)CC1 (atropisomer, axis not shown) [Example 1356, (3S,10S)-7-(4-acryloylpiperazin-1-yl)-10-(5-chloro-2,4-difluorophenyl)-3-((4-cyclopropylpiperazin-1-yl)methyl)-9-(trifluoromethyl)-2,3-dihydro-5H-[1,4]thiazino[2,3,4-ij]quinazolin-5-one] — lower, 92.8%
- C=CC(=O)N1[C@H](C)CN(c2nc(=O)n3c4c(c(-c5cc(Cl)c(F)cc5F)c(C(F)(F)F)cc24)SCC2(COC2)C3)C[C@@H]1C (atropisomer, axis not shown) [Example 1361a, (R)-8′-((3S,5R)-4-acryloyl-3,5-dimethylpiperazin-1-yl)-11′-(5-chloro-2,4-difluorophenyl)-10′-(trifluoromethyl)-2′H,4′H,6′H-spiro[oxetane-3,3′-[1,4]thiazepino[2,3,4-ij]quinazolin]-6′-one] — lower, 93.3%
- C=CC(=O)N1[C@H](C)CN(c2nc(=O)n3c4c(c(-c5cc(Cl)c(F)cc5F)c(C(F)(F)F)cc24)SCC2(COC2)C3)C[C@@H]1C (atropisomer, axis not shown) [Example 1361b] — lower, 71.4%
- C=CC(=O)N1CCN(c2nc(=O)n3c4c(c(-c5cc(Cl)c(F)cc5F)c(C(F)(F)F)cc24)SC[C@@H]3COCOC)CC1 (atropisomer, axis not shown) [Example 1364] — higher, 98%
- C=CC(=O)N1CCN(c2nc(=O)n3c4c(c(-c5cc(Cl)c(F)cc5F)c(C(F)(F)F)cc24)SC[C@@H]3COCOC)CC1 (atropisomer, axis not shown) [Example 1365] — lower, 83.7%
- C=CC(=O)N1[C@H](C)CN(c2nc(=O)n3c4c(c(-c5ccc(F)c6cnn(C)c56)c(C(F)(F)F)cc24)SC[C@@H]3COC)C[C@@H]1C (atropisomer, axis not shown) [Example 1366a, (3S,10S)-7-((3S,5R)-4-acryloyl-3,5-dimethylpiperazin-1-yl)-10-(4-fluoro-1-methyl-1H-indazol-7-yl)-3-(methoxymethyl)-9-(trifluoromethyl)-2,3-dihydro-5H-[1,4]thiazino[2,3,4-ij]quinazolin-5-one] — lower, 46.8%
- C=CC(=O)N1CCN(c2nc(=O)n3c4c(c(-c5ccc(F)cc5F)c(C(F)(F)F)cc24)SC[C@@H]3COCOC)CC1 (atropisomer, axis not shown) [Example 1367, (3S,10R)-7-(4-acryloylpiperazin-1-yl)-10-(2,4-difluorophenyl)-3-((methoxymethoxy)methyl)-9-(trifluoromethyl)-2,3-dihydro-5H-[1,4]thiazino[2,3,4-ij]quinazolin-5-one] — lower, 92.4%
- C=CC(=O)N1[C@H](C)CN(c2nc(=O)n3c4c(c(-c5cc(Cl)c(F)cc5F)c(C(F)(F)F)cc24)SC[C@@H]3COCOC)C[C@@H]1C (atropisomer, axis not shown) [Example 1369] — lower, 64.6%
- C=CC(=O)N1[C@H](C)CN(c2nc(=O)n3c4c(c(-c5cc(Cl)c(F)cc5F)c(C(F)(F)F)cc24)SC[C@@H]3COCOC)C[C@@H]1C (atropisomer, axis not shown) [Example 1370, (3S,10R)-7-((3S,5R)-4-acryloyl-3,5-dimethylpiperazin-1-yl)-10-(5-chloro-2,4-difluorophenyl)-3-((methoxymethoxy)methyl)-9-(trifluoromethyl)-2,3-dihydro-5H-[1,4]thiazino[2,3,4-ij]quinazolin-5-one] — the same, 94.4%

— patent publication US20230107642A1 (Erasca, Inc., priority 2020, published 2023)
